As to `N#Cc1ccccc1C=CC(=O)c1ccc(N2CCNCC2)cc1` [Va, 2-(3-Oxo-3-(4-(piperazin-1-yl)phenyl)prop-1-enyl)benzonitrile], the melting point (in general, the temperature, or range, at which the solid turns liquid) worked out at 150 °C.
On to `N#Cc1ccc(C=CC(=O)c2ccc(N3CCNCC3)cc2)cc1` [Vb, 4-(3-Oxo-3–(4-(piperazin-1-yl)phenyl)prop-1-enyl)benzonitrile], for which the melting point is 170 °C.
The same measure for `O=C(C=Cc1ccccc1F)c1ccc(N2CCNCC2)cc1` [Vc, 3-(2-Fluorophenyl)-1-(4-(piperazin-1-yl)phenyl)prop-2-en-1-one]: 176 °C; for `O=C(C=Cc1cc([N+](=O)[O-])ccc1O)c1ccc(N2CCNCC2)cc1` [Vg, 3-(2-Hydroxy-5-nitrophenyl)-1-(4-(piperazin-1-yl)phenyl)prop-2-en-1-one]: 185 °C.
The same measure for `O=C(C=Cc1ccco1)c1ccc(N2CCNCC2)cc1` [Vh, 3-(Furan-2-yl)-1-(4-(piperazin-1-yl)phenyl)prop-2-en-1-one]: 190 °C.
